Tests used:
Type in all cases: physicochemical
[1] = Measurement of water content (coulometric titration method); conditions: as prepared, sample 5 mg
Excerpt: For evaluation of purity of Compound 1 or the substance in the form of a salt, the area percentage method based on HPLC is convenient. For evaluation of water content of Compound 1 or the substance in the form of a salt, the volumetric titration method, the coulometric titration method described in Japanese Pharmacopoeia, General Test Methods, “Water Determination”, the loss on drying test and the like can be used. When sample weight is small, the coulometric titration method can be preferably chosen.

[2] = Hygroscopicity Test 2 (25° C. and 84% RH; free base, salts and salt mixtures); conditions: for Appearance / Water content / Purity: 25° C. and 84% RH, dark; for Purity: HPLC
Experimental: (§1) Hygroscopicity of Compound 1 or the substance in the form of a salt can be evaluated by putting a sample on a glass weighing dish, storing the dish in a dark place for a given period of time in an open state at a temperature of 25 to 40° C. under a humidification condition of about 75 to 94% relative humidity, and then observing or measuring appearance, purity, water content and the like of Compound 1 or the substance in the form of a salt. Increase of water content before and after storage especially serves as an important hygroscopic index. For example, the evaluation is preferably performed after storage conditions of 25° C. and 84% RH. • High performance liquid chromatography apparatus: LC-10A Series (Shimadzu) or Agilent 1100 series (Agilent Technologies) • Solution concentration: 500 μg/ml • Injection: 10 μl • Detector: Ultraviolet absorptiometer (measurement wavelength: 245 nm) • Column: XBridge Shield RP18 5 μm, internal diameter: 4.6 mm, length: 15 cm (Waters) • Column temperature: Constant temperature around 40° C. • Mobile phase A: 20 mmol/l Sodium phosphate buffer (pH 7.0) • Mobile phase B: Acetonitrile • Liquid feeding program: A concentration gradient was formed by changing the mixing ratio of the mobile phase A and the mobile phase B as shown in Table 1. • Flow rate: 1.0 ml/minute • Water content measurement apparatus: AQ-7 (Hiranuma Sangyo) • Sample amount: 5 mg • Anolyte: Aqualyte RS (Sigma-Aldrich) • Catholyte: Aqualyte CN (Sigma-Aldrich) Compound 1 obtained by a method similar to the method described in Example 1 (two kinds of lots), the monohydrochloride obtained by the method described in Example 3, the dihydrochloride, and mixtures of the monohydrochloride and the dihydrochloride at ratios of 9:1, 8:2, 6:4, 4:6 and 2:8 were weighed on a glass weighing dish in an amount of each 40 mg, and each sample was stored in a dark place at 25° C. and 84% RH for 2 to 4 weeks. After the storage, appearance was evaluated by visual inspection. Further, purity was measured under the conditions of Test Example 7, and water content was measured under the conditions of Test Example 8.

[3] = Thermal stability test (sealed glass vial, dark place, 60° C.); conditions: for Appearance / Water content / Purity: 60° C., dark, sealed vial; for Purity: HPLC
Experimental: Thermal stability of Compound 1 or the substance in the form of a salt can be evaluated by, for example, sealing a sample in a glass vial or the like, storing the vial under a severe temperature condition such as 40 to 80° C. in a dark place for a given period of time, and then observing or measuring appearance, purity, water content and the like of Compound 1 or the substance in the form of a salt. Change of purity before and after storage especially serves as an important index of thermal stability. For example, the evaluation is preferably performed under a storage condition of 60° C. • High performance liquid chromatography apparatus: LC-10A Series (Shimadzu) or Agilent 1100 series (Agilent Technologies) • Solution concentration: 500 μg/ml • Injection: 10 μl • Detector: Ultraviolet absorptiometer (measurement wavelength: 245 nm) • Column: XBridge Shield RP18 5 μm, internal diameter: 4.6 mm, length: 15 cm (Waters) • Column temperature: Constant temperature around 40° C. • Mobile phase A: 20 mmol/l Sodium phosphate buffer (pH 7.0) • Mobile phase B: Acetonitrile • Liquid feeding program: A concentration gradient was formed by changing the mixing ratio of the mobile phase A and the mobile phase B as shown in Table 1. • Flow rate: 1.0 ml/minute • Water content measurement apparatus: AQ-7 (Hiranuma Sangyo) • Sample amount: 5 mg • Anolyte: Aqualyte RS (Sigma-Aldrich) • Catholyte: Aqualyte CN (Sigma-Aldrich) The monohydrochloride obtained by the method described in Example 3, the monohydrobromide obtained by the method described in Example 4, and the dihydrochloride as a control were weighed in a glass vial in an amount of 40 mg each, and the glass vial was sealed. Each sample was stored in a dark place at 60° C. for 2 to 4 weeks, and after the storage, appearance was evaluated by visual inspection. Further, purity was measured under the conditions of Test Example 7, and water content was measured under the conditions of Test Example 8.

[4] = Hygroscopicity Test 1 (open glass weighing dish, dark place, 25° C. and 84% RH); conditions: for Appearance / Water content / Purity: 25° C. and 84% RH, dark, open; for Purity: HPLC
Experimental: as §1, with “(Sigma-Aldrich) The” for “(Sigma-Aldrich) Compound 1 obtained by a method similar to the method described in Example 1 (two kinds of lots), the”, “the monohydrobromide obtained by” for “the dihydrochloride, and mixtures of”, “the method described in Example 4,” for “the monohydrochloride”, “dihydrochloride as a control” for “dihydrochloride at ratios of 9:1, 8:2, 6:4, 4:6 and 2:8”, “of” for “of each”, “40 mg each,” for “40 mg,”

[5] = after storage at 60° C. for 4 weeks
[6] = after storage at 25° C. and 84% RH for 4 weeks

With CN[C@H]1CCN(S(=O)(=O)c2cccc3cncc(Cl)c23)C1.Cl [Monohydrochloride, (S)-1-(4-chloro-5-isoquinolinesulfonyl)-3-(methylamino)pyrrolidine monohydrochloride] the Water content [1] was 0.20%, the Appearance ([2]; after 2 weeks) was “White” and the Water content ([2]; after 2 weeks) was 0.1%. The Appearance ([2]; before storage) was “White”, the Water content ([2]; before storage) was 0.0% and the Purity ([2]; after 2 weeks) was 100.0%. For the same compound, the Purity ([2]; before storage) was 100.0%, the “Hygroscopicity compared with Compound 1 (free base) and mixtures” value ([2]; Test Example 11, 25° C. and 84% RH) was “hygroscopicity lower than any of Compound 1 (free base) and mixtures of the monohydrochloride and the dihydrochloride” and the Appearance ([3]; after 2 weeks) was “White”. The Water content ([3]; after 2 weeks) was 0.06%, the Appearance ([3]; after 4 weeks) was “White” and the Water content ([3]; after 4 weeks) was 0.08%. The Appearance ([3]; before storage) was “White”, the Water content ([3]; before storage) was 0.20% and the Purity ([3]; after 2 weeks) was 99.9%. For the same compound, the Purity ([3]; after 4 weeks) was 99.7%, the Purity ([3]; before storage) was 99.4% and the “Thermal stability compared with the dihydrochloride” value ([3]; Test Example 9, 60° C.) was “more satisfactory thermal stability”. The Change of appearance [3, 5] was “no change of appearance”, the Degradation of purity [3, 5] was “no degradation of purity” and the Appearance ([4]; after 2 weeks) was “White”. For the same compound, the Water content ([4]; after 2 weeks) was 0.23%, the Appearance ([4]; after 4 weeks) was “White” and the Water content ([4]; after 4 weeks) was 0.26%. The Appearance ([4]; before storage) was “White”, the Water content ([4]; before storage) was 0.20% and the Purity ([4]; after 2 weeks) was 99.8%. For the same compound, the Purity ([4]; after 4 weeks) was 99.6%, the Purity ([4]; before storage) was 99.4% and the “Hygroscopicity compared with the dihydrochloride” value ([4]; Test Example 10, 25° C. and 84% RH) was “remarkably lower hygroscopicity”. The Change of appearance [4, 6] was “no change of appearance”, the Degradation of purity [4, 6] was “no degradation of purity” and the “Increase of water content” value [4, 6] was “no substantial increase of water content”.

From patent US8664243B2, “Sulfonamide compound and crystal thereof” (Asahi Kasei Pharma Corporation, priority 2007, dated 2014)
